# Literature values in article PMC6831561, “Pharmacological and Behavioral Effects of the Synthetic Cannabinoid AKB48 in Rats” (Frontiers in Neuroscience, 2019).
# Where two headings read alike, the source gives them in different places.
# Tested on: extracellular DA levels
# Conditions: ref De Luca et al., 2015, cited from earlier work
smiles,measurement,setting,value
"CCCCCn1cc(C(=O)c2cccc3ccccc23)c2ccccc21 [JWH-018, Naphthalen-1-yl-(1-pentylindol-3-yl)methanone]",max increase of DA in the NAc shell,"JWH-018 0.25 mg/kg ip, from 20 to 70 min, Miliano et al., 2016",about 60%
same,DA release in the NAc shell,JWH-018 0.25 mg/kg,increased DA release
same,DA release in the NAc shell,JWH-018 high doses (1 and 3 mg/kg),no effect
same,DA release in the NAc shell,JWH-018 lower (0.125 mg/kg) and higher (0.50 mg/kg) doses,ineffective
